Results on two molecules are retold here after patent publication US11786523B2, “Composition and method for reducing thrombocytopenia” (BEYONDSPRING PHARMACEUTICALS, INC., priority 2018, dated 2023).

Test [1] concerns gemcitabine-induced thrombocytopenia. Description: Effects of plinabulin on hematology parameters (platelet counts) following gemcitabine administration in the rat. Format: in vivo. Here is the method:
The effects of plinabulin on the hematology parameters following changes induced by gemcitabine administration in the rat were evaluated. The vehicle was prepared using 7.11% Tween 80 (v/v): 25.5% Propylene glycol (v/v): 67.4% D5W (v/v). D5W is 5% dextrose in water for injection.
Plinabulin or Pegfilgrastim were first dissolved in the Tween 80-PG mixture and then diluted with D5W. Test item was dissolved in Tween 80-PG mixture on the day before and stored at RF. D5W was added on the day of dosing to complete the formulation.
Animals were randomized based on body weight and/or absolute neutrophil counts and assigned to groups. Before the initiation of dosing, any assigned animals considered unsuitable for use in the study were replaced by alternate animals obtained from the same shipment and maintained under the same environmental conditions. Each animal was uniquely identified using indelible ink. A minimum acclimation period of 5 days was allowed between animal receipt and the start of treatment in order to accustom the animals to the laboratory environment.
For the lab evaluation, the animal blood was collected by jugular venipuncture. Samples (0.3 mL) were collected in EDTA tubes. Additional blood samples may be obtained (e.g., due to clotting of non-serum samples) if permissible sampling frequency and blood volume are not exceeded. After collection, samples were transferred to Clinical Laboratories for hematology analysis using the Advia and results entered into the Provantis® system.
Administration of Inducing Agent
1. Gemcitabine; Groups 1, 3 and 4
Dosing regimen: Single dosing on Day 1
Intravenously (IV bolus) over ˜1 minute at a dose volume of 5 mL/kg.
Group 2 received Vehicle.
2. Pegfilgrastim; Groups 2 and 4
Dosing regimen: Single dosing on Day 2, 24 hours after Gemcitabine
Route of administration: Subcutaneous (SC) injection.
Dose volume: 10 mL/kg, based on the most recent body weight measurement
Dosing regimen: Single dosing on Day 1, 1 hr after Gemcitabine
Route of administration: Intra-peritoneal (IP) injection.
Group 1 received Vehicle.
The dosing time points for groups 1 to 4 include days −3, 1, 2, 3, 4, 5, 6, 7, 8, 9 and 10. Additional blood samples may be obtained (e.g., due to clotting of non-serum samples) if permissible sampling frequency and blood volume are not exceeded. After collection, samples will be transferred to Clinical Laboratories for hematology analysis using the Advia and results entered into the Provantis® system.

Test [2] has as its system thrombocytopenia in patients receiving docetaxel. Description: Phase 2/3 randomized study of plinabulin versus pegfilgrastim in patients with solid tumors receiving docetaxel myelosuppressive chemotherapy (platelet count, thrombocytopenia). The conditions noted are these: patients on docetaxel 75 mg/m^2, preliminary; for change of platelet count (percent) from day 1 to day 15: pegfilgrastim 6 mg vs plinabulin 20 mg/m^2, FIG. 2; for development of thrombocytopenia (percentage of patients at each grade): plinabulin 20 mg/m^2 vs pegfilgrastim 6 mg, FIG. 5. In kind it is in vivo, human. Here is the method:
The effects of plinabulin on the thrombocytopenia is studied in comparison to pegfilgrastim. A phase 2/3, multicenter, randomized, double blind study is performed with plinabulin versus pegfilgrastim in patients with solid tumors receiving docetaxel myelosuppressive chemotherapy is evaluated. The patients are on study for approximately 5 months, including screening, on treatment, and follow-up. Study design: This is a multicenter, randomized study with an open label phase 2 portion and a double blind phase 3 portion. Approximately 190 patients are enrolled in this study. All patients receive docetaxel at a dose of 75 mg/m^2. In Phase 2, only patients with advanced or metastatic NSCLC after failing platinum-based therapy are enrolled. In Phase 3, patients with one of the following diagnosis are enrolled: advanced or metastatic breast cancer, who have failed<5 prior lines of chemotherapy; advanced or metastatic NSCLC who have previously received platinum-based therapy and have either disease progression, are intolerant of platinum-based therapy or, in the opinion of the investigator, would benefit from docetaxel chemotherapy; or hormone refractory (androgen independent) metastatic prostate cancer. The eligibility of all patients will be determined during a 28-day screening period. Phase 2 (Open Label): Approximately 40 patients with advanced or metastatic NSCLC are enrolled. Patients are randomly assigned with approximately 10 patients enrolled in each arm, with the arm designation and planned intervention as follows: Arm 1: Docetaxel (75 mg/m^2)+pegfilgrastim (6 mg) Arm 2: Docetaxel (75 mg/m^2)+plinabulin (20 mg/m^2) Arm 3: Docetaxel (75 mg/m^2)+plinabulin (10 mg/m^2) Arm 4: Docetaxel (75 mg/m^2)+plinabulin (5 mg/m^2) Once the study is temporarily closed to enrollment in phase 2, a PK/PD analysis is performed to determine the RP3D. The PK/PD analysis is done by an independent party at the time 40 patients in Phase 2 have completed at least Cycle 1. Treatments Administered: Both Phase 2 and Phase 3, Cycles 1 to 4, consist of docetaxel 75 mg/m^2 administered by intravenous (IV) infusion on Day 1 over 60 minutes (±5 minutes) every 21 days. In the phase 2 portion, on Day 1 of each cycle, 1.5 hours (±10 minutes) after the start time of docetaxel infusion (i.e., approximately 30 minutes after the end of docetaxel infusion), patients assigned to a plinabulin arm (arms 2-4) get a single intravenous infusion of plinabulin at their assigned dose over 30 minutes (±5 minutes). Thus, the wait time between end of docetaxel infusion and start of the plinabulin infusion is approximately 30 minutes. On Day 2 of each cycle, ≥24 hours after completing chemotherapy, patients assigned to pegfilgrastim (arm 1) receive a single dose of pegfilgrastim (6 mg) (subcutaneous injection). Laboratory test results (hematology and serum chemistry) are collected via a central laboratory. Safety laboratory tests are required prior to treatment on Day 1 of each cycle and can be collected by a local laboratory; however, all other scheduled blood samples as per the schedule assessments and procedure table must also be obtained for central laboratory assessment. Urinalysis is performed at screening only. CD34+ counts are established through a fluorescence-activated cell sorting (FACS) method. Duration of Treatment: Patients received treatment with study drug for up to 4 cycles in this study, a treatment cycle is 21 days; thereafter, patients may continue receiving docetaxel and pegfilgrastim at the Investigator's discretion. After completion of 4 cycles, patients completed a safety follow-up visit 30 days (±2 days) after the last dose of study drug. If, in the opinion of the investigator, the patient would benefit from more than 4 cycles of docetaxel and open label pegfilgrastim, then the fifth cycle would not start until completion of the safety follow-up visit (in this instance, the safety follow-up visit will be Cycle 4 Day 21).

For the molecule `CC(C)(C)c1[nH]cnc1/C=c1\[nH]c(=O)/c(=C/c2ccccc2)[nH]c1=O` [plinabulin, Plinabulin], the “platelet counts versus gemcitabine alone group” value in test [1] (Days 8 and 9, gemcitabine and plinabulin group) is recorded as “statistically greater”. For the same molecule, the “effect on thrombocytopenia observed with gemcitabine alone” value in test [1] (gemcitabine 100 mg/kg IV + plinabulin 7.5 mg/kg IP, FIG. 1) is listed as “reduced the thrombocytopenia observed with gemcitabine alone”. In test [1] (gemcitabine 100 mg/kg IV Day 1 + plinabulin 7.5 mg/kg IP 1 hr after, all sampling days, FIG. 1), the platelet counts is on record as > 500 ×10^3 cells/μL. In addition, the “recovery from gemcitabine-induced thrombocytopenia versus gemcitabine alone” value in test [1] (gemcitabine and plinabulin group) is listed as “more rapid”. For the same molecule, in test [2] (cycles 1-4, plinabulin groups, FIG. 3), the “percentage of patients with greater than 30% platelet decrease from baseline, compared with pegfilgrastim group” value is “lower percentages”. Also, in test [2], the “change of platelet count (percent) from day 1 to day 15” value is on record as “more effective in maintaining the platelet count” and the “development of thrombocytopenia (percentage of patients at each grade)” value is listed as “did not develop thrombocytopenia”. In test [2] (plinabulin 5, 10 and 20 mg/m^2 vs pegfilgrastim 6 mg, FIG. 4), the “incidence of developing thrombocytopenia (percentage of patients at each grade)” value is listed as “lower incidences of developing thrombocytopenia than the pegfilgrastim group”.

B1: pegfilgrastim (protein, chains of the INN, looked up)
chain: TPLGPASSLPQSFLLKCLEQVRKIQGDGAALQEKLCATYKLCHPEELVLLGHSLGIPWAPLSSCPSQALQLAGCLSQLHSGLFLYQGLLQALEGISPELGPTLDTLQLDVADFATTIWQQMEELGMAPALQPTQGAMPAFASAFQRRAGGVLVASHLQSFLEVSYRVLRHLAQP
modifications: PEG
notes: granulocyte-colony stimulating factor (G-CSF) drug used as comparator
For B1, the “percentage of patients with greater than 30% platelet decrease from baseline” value in test [2] (cycles 1-4, FIG. 3) was roughly 85%. Also, in test [2], the “change of platelet count (percent) from day 1 to day 15” value was “greater than the plinabulin group” and the “development of thrombocytopenia (percentage of patients at each grade)” value is recorded as “some patients in the pegfilgrastim group developed thrombocytopenia”.
